Experimental data published in patent US20090131329A1, “Treatment for allograft rejection” (priority 2007, published 2009).

Key:
[1] = system: lung allograft rejection (BN donor into F344 recipient); test: Histological evaluation of acute rejection (IWF rejection score) of rat lung allografts on day 7; format: in vivo
Method: Methods. Orthotopic left lung allotransplantation was performed from Brown Norway (donor) to Fisher 344 (recipient) rats. The role of activated neutrophils in the development of allograft rejection is believed to be biphasic. Therefore, specific CXC receptor inhibition was used with antileukinate in two dosing regimens. Recipients were allocated into 4 groups: A (early administration: n=6) received two doses of antileukinate (a hexapeptide), 10.0 mg/kg intramuscularly 24 hours before and immediately after transplantation, B (continuous administration: n=8) animals continuously received antileukinate intraperitoneally (10.0 mg/kg/day) for 7 days after surgery. Experimental groups A or B were compared with their individual control that received saline alone (Cont-A and Cont-B). The progression of rejection was assessed radiographically. Each animal was sacrificed on day 7 for histologic evaluation of allograft rejection based on pathologic rejection grade. Transplant Model. Rat left-lung transplantation was performed in a RT1 (MHC) incompatible donor-recipient combination from a BN donor into a F344 recipient. Complete graft rejection in this severely mismatched combination would be expected histologically and radiographically on day 7 postoperatively. […]

[2] = system: lung allograft rejection (BN donor into F344 recipient); test: Radiographic evaluation (aeration score) of transplanted lungs; format: in vivo, rat; details: for aeration score (AS) of representative chest radiograph: day 7
Method: Methods. Orthotopic left lung allotransplantation was performed from Brown Norway (donor) to Fisher 344 (recipient) rats. The role of activated neutrophils in the development of allograft rejection is believed to be biphasic. Therefore, specific CXC receptor inhibition was used with antileukinate in two dosing regimens. Recipients were allocated into 4 groups: A (early administration: n=6) received two doses of antileukinate (a hexapeptide), 10.0 mg/kg intramuscularly 24 hours before and immediately after transplantation, B (continuous administration: n=8) animals continuously received antileukinate intraperitoneally (10.0 mg/kg/day) for 7 days after surgery. Experimental groups A or B were compared with their individual control that received saline alone (Cont-A and Cont-B). The progression of rejection was assessed radiographically. Each animal was sacrificed on day 7 for histologic evaluation of allograft rejection based on pathologic rejection grade. Transplant Model. Rat left-lung transplantation was performed in a RT1 (MHC) incompatible donor-recipient combination from a BN donor into a F344 recipient. Complete graft rejection in this severely mismatched combination would be expected histologically and radiographically on day 7 postoperatively. The orthotopic left-lung transplantation procedure used in this study was a modification of the ‘cuff’ technique for vascular anastomosis (Mizuta et al., 1989). In brief, the lung grafts were flushed and immersed in ice-cold normal saline solution before implantation. Cuffs with internal diameters of 1.65 mm and 2.20 mm for pulmonary arterial and venous anastomosis, respectively, were used. The left main bronchus was anastomosed using 8-0 prolene running sutures. In rats, radiographic assessment of a left-lung transplantation graft can be obscured by the right lung. Therefore, a postcaval lobectomy on the recipient's right lung was performed immediately after implantation so as to facilitate radiographic assessment of the left-lung allograft. […] Experimental groups. Recipient animals were divided into 4 groups (Table 1). Animals from group A (early administration; n=6) received 0.5 ml of phosphate-buffered saline (PBS) solution containing a 10.0 mg/kg concentration of antileukinate intramuscularly 24 hours before (day −1) and immediately after transplantation (day 0). The control group against group A (Cont-A) received 0.5 ml of PBS in a similar fashion. Allograft recipients from group B (continuous administration; n=8) were given continuous antileukinate administration intraperitoneally for 7 days after transplantation, starting immediately after surgery using a micro-osmotic pump which was implanted into the peritoneal cavity two hours before lung transplantation. Antileukinate was released into the recipient's peritoneal cavity continuously at a dose of 10.0 mg/kg/day from days 0 to 7. Animals from Cont-B served as the control group against group B receiving the same amount of PBS without antileukinate in the same manner. Implantation of micro-osmotic pumps for groups B and Cont-B. Micro-osmotic pumps (model 2001; Alzet Corp., distributed by Charles River Laboratories, Sulzfeld, Germany) were used for intraperitoneal delivery of antileukinate. […] Transplanted lungs were serially assessed every other day by chest roentgenogram under spontaneous ventilation with halothane for sedation. […] Briefly, it was evaluated and graded 0 for an opaque lung, and up to 6 for a normal-appearing lung. […]

[3] = system: neutrophils in the lung allograft; test: Number of neutrophils infiltrated into lung grafts; format: in vivo, rat; details: day 7
Method: Transplant Model. Rat left-lung transplantation was performed in a RT1 (MHC) incompatible donor-recipient combination from a BN donor into a F344 recipient. Complete graft rejection in this severely mismatched combination would be expected histologically and radiographically on day 7 postoperatively. The orthotopic left-lung transplantation procedure used in this study was a modification of the ‘cuff’ technique for vascular anastomosis (Mizuta et al., 1989). In brief, the lung grafts were flushed and immersed in ice-cold normal saline solution before implantation. Cuffs with internal diameters of 1.65 mm and 2.20 mm for pulmonary arterial and venous anastomosis, respectively, were used. […] Acute rejection was evaluated histologically and assigned a rejection score (RS) based on the clinical international working formulation: IWF grade 0, no significant abnormality; grade 1, scattered infrequent perivascular mononuclear infiltration; grade 2, frequent perivascular mononuclear infiltration; grade 3, extension of mononuclear infiltration into alveolar septum/space; and grade 4, diffuse perivascular, interstitial, and air space infiltration of mononuclear cells. The number of neutrophils was counted in a blinded fashion in 10 random fields per slide at ×1000 magnification. […] The data were expressed as mean±standard deviation. […]

[4] = system: lung allograft (BN donor into F344 recipient); test: Macroscopic findings of the allograft on day 7; format: in vivo, rat; details: controls: complete consolidation without aeration
Method: Transplant Model. Rat left-lung transplantation was performed in a RT1 (MHC) incompatible donor-recipient combination from a BN donor into a F344 recipient. Complete graft rejection in this severely mismatched combination would be expected histologically and radiographically on day 7 postoperatively. The orthotopic left-lung transplantation procedure used in this study was a modification of the ‘cuff’ technique for vascular anastomosis (Mizuta et al., 1989). In brief, the lung grafts were flushed and immersed in ice-cold normal saline solution before implantation. Cuffs with internal diameters of 1.65 mm and 2.20 mm for pulmonary arterial and venous anastomosis, respectively, were used. The left main bronchus was anastomosed using 8-0 prolene running sutures. In rats, radiographic assessment of a left-lung transplantation graft can be obscured by the right lung. Therefore, a postcaval lobectomy on the recipient's right lung was performed immediately after implantation so as to facilitate radiographic assessment of the left-lung allograft. […] Experimental groups. Recipient animals were divided into 4 groups (Table 1). Animals from group A (early administration; n=6) received 0.5 ml of phosphate-buffered saline (PBS) solution containing a 10.0 mg/kg concentration of antileukinate intramuscularly 24 hours before (day −1) and immediately after transplantation (day 0). […]

[5] = group B (continuous administration)

With Ac-RRWWCR-NH2 [antileukinate] the “rejection score (RS) of representative allograft” value ([1]; group B (continuous administration), day 7, representative histology) was 1, the “histologic rejection score (IWF), mean±standard deviation” value ([1]; group B: continuous ip 10.0 mg/kg/day days 0 to 7, n=8, day 7, Cont-B 3.3±0.5, p=0.018, scale 0-4) was 2.1±1.0 and the “aeration score versus control at each time point” value ([2]; group A (early administration) versus Cont-A) was “No significant differences”. For the same substance, the “aeration score (AS) of representative chest radiograph” value ([2]; group A (early administration)) was 6, the “aeration score versus control at each time point” value ([2]; group B (continuous administration) versus Cont-B) was “No significant differences” and the “aeration score (AS) of representative chest radiograph” value [2, 5] was 5. The “aeration score (AS) on day 7, mean±standard deviation” value ([2]; group B: continuous ip 10.0 mg/kg/day, Cont-B 1.6±1.3, p=0.16, score 0=opaque to 6=normal-appearing lung) was 2.6±2.1, the “neutrophil count in the graft” value ([3]; group A: 10.0 mg/kg im day -1 and day 0, Cont-A 55.7±10.0, p=0.093) was 34.8±28.7 /10HPFs and the “neutrophil count in the graft” value ([3]; group B: continuous ip 10.0 mg/kg/day, Cont-B 47.9±18.4, p=0.046) was 32.1±9.6 /10 HPFs. The “macroscopic finding of the allograft” value ([4]; group A (early administration)) was “macroscopically adequate ventilation” and the “macroscopic finding of the allograft” value [4, 5] was “macroscopically adequate ventilation”.
